Consider 13 compounds from patent US9409907B2, “Inhibitor compounds” (Cancer Research Technology Limited, priority 2012, dated 2016).

For this assay, the target named is full length MPS1 (Homo sapiens (Human), UniProt P33981). Kind of assay: Measurement of inhibition of MPS1 kinase (Caliper EZ reader mobility-shift enzyme assay). The settings on record: full length MPS1 12.5 nM or 3 nM, H236 peptide 5 μM, ATP 10 μM, 60 min at room temperature. In kind it is biochemical. On the procedure:
Measurement of Inhibition of MPS1 Kinase
The reaction was carried out for 60 min at room temperature and stopped by the addition of buffer (10 μl) containing 20 mM EDTA, 0.05% (v/v) Brij-35, in 0.1M HEPES-buffered saline (Free acid, Sigma, UK). The plate was read on a Caliper EZ reader II (Caliper Life Sciences).
The % inhibition of the compounds is calculated relative to the means of selected control wells.

full length MPS1, sequence (P33981 whole entry): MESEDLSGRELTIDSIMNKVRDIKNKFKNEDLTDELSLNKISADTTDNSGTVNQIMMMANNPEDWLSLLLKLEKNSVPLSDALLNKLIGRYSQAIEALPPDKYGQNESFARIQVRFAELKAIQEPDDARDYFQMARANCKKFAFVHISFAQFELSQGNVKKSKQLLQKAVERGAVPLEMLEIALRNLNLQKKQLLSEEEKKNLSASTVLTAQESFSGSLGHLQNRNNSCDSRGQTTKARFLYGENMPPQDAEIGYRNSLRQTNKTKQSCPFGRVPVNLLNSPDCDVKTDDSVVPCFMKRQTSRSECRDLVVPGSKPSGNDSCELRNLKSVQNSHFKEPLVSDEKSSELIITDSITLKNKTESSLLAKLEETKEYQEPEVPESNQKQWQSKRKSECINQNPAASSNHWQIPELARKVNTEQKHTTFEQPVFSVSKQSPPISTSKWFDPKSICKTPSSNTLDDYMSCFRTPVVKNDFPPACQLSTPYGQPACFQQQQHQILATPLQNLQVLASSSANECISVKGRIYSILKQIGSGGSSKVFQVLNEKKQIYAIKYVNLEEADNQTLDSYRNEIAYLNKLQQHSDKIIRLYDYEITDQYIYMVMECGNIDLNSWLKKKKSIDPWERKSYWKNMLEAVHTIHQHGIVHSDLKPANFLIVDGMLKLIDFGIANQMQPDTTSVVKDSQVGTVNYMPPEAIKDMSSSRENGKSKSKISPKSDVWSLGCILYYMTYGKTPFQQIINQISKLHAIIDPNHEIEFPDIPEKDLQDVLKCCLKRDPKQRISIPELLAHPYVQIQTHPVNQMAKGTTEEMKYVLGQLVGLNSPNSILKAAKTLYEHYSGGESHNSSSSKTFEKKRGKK

On to `Cc1cc(-c2cnn(C)c2)ccc1Nc1ncc2ccnc(NCC3CC3)c2n1` [Example 99, N8-(cyclopropylmethyl)-N2-(2-methyl-4-(1-methyl-1H-pyrazol-4-yl)phenyl)pyrido[3,4-d]pyrimidine-2,8-diamine], for which the IC50 was 8 nM.
The same measure for `COc1cc(-c2cnn(C)c2)ccc1Nc1ncc2ccnc(N3CC4(CCOCC4)C3)c2n1` [Example 119, N-(2-methoxy-4-(1-methyl-1H-pyrazol-4-yl)phenyl)-8-(7-oxa-2-azaspiro[3.5]nonan-2-yl)pyrido[3,4-d]pyrimidin-2-amine]: 3 nM.
The same measure for `COc1cc(-c2cnn(C)c2)ccc1Nc1ncc2ccnc(N3CCOCC3)c2n1` [Example 61, N-(2-methoxy-4-(1-methyl-1H-pyrazol-4-yl)phenyl)-8-morpholinopyrido[3,4-d]pyrimidin-2-amine]: 3 nM.
`COCCn1c(-c2ccc(Nc3ncc4ccnc(NCC5(C)CCOC5)c4n3)c(OC)c2)cnc1C` (stereo not shown) [Example 187]: the concentration for half-maximal inhibition (IC50) worked out at 2 nM.
As for `COc1cc(-c2cnn(CCO)c2)ccc1Nc1ncc2ccnc(NC3CCOCC3)c2n1` [Example 44, 2-(4-(3-methoxy-4-((8-((tetrahydro-2H-pyran-4-yl)amino)pyrido[3,4-d]pyrimidin-2-yl)amino)phenyl)-1H-pyrazol-1-yl)ethanol], the IC50 was 3 nM.
As to `COc1cc(-c2cnn(C)c2)ccc1Nc1ncc2ccnc(NCCC(C)C)c2n1` [Example 60, N8-isopentyl-N2-(2-methoxy-4-(1-methyl-1H-pyrazol-4-yl)phenyl)pyrido[3,4-d]pyrimidine-2,8-diamine], the half-maximal inhibitory concentration (IC50) was 21 nM.
As for `COc1cc(C(=O)N2CC(OC)C2)ccc1Nc1cc2c(-c3ccnn3C)cccc2cn1` [Example 9, (3-methoxy-4-((5-(1-methyl-1H-pyrazol-5-yl)isoquinolin-3-yl)amino)phenyl)(3-methoxyazetidin-1-yl)methanone], the figure is 22 nM.
For the compound `COc1cc(-c2cnn(C)c2)ccc1Nc1ncc2ccnc(NCC(C)(C)CO)c2n1` [Example 74, 3-((2-((2-methoxy-4-(1-methyl-1H-pyrazol-4-yl)phenyl)amino)pyrido[3,4-d]pyrimidin-8-yl)amino)-2,2-dimethylpropan-1-ol], the IC50 came out at 4 nM.
As to `CCn1cc(-c2ccc(Nc3ncc4ccnc(NCC(C)(C)OC)c4n3)c(OC)c2)cn1` [Example 152, N^2-(4-(1-ethyl-1H-pyrazol-4-yl)-2-methoxyphenyl)-N^8-(2-methoxy-2-methylpropyl)pyrido[3,4-d]pyrimidine-2,8-diamine], the IC50 stood at 7 nM.
The same measure for `COc1cc(C(=O)N2CCN(C)CC2)ccc1Nc1ncc2ccnc(NCC(C)(C)OC)c2n1` [Example 195]: 8 nM; for `COCCNc1nccc2cnc(Nc3ccc(-c4cnn(C)c4)cc3OC)nc12` [Example 127, N^2-(2-Methoxy-4-(1-methyl-1H-pyrazol-4-yl)phenyl)-N^8-(2-methoxyethyl)pyrido[3,4-d]pyrimidine-2,8-diamine]: 8 nM; for `Cn1cc(-c2ccc(Nc3ncc4ccnc(NCC(C)(C)C)c4n3)c(OC(F)(F)F)c2)cn1` [Example 169, N2-(4-(1-methyl-1H-pyrazol-4-yl)-2-(trifluoromethoxy)phenyl)-N8-neopentylpyrido[3,4-d]pyrimidine-2,8-diamine]: 48 nM.
Consider `COCCn1c(-c2ccc(Nc3ncc4cc(C)nc(NCC(C)(C)C)c4n3)c(OC)c2)cnc1C` [Example 181], for which the IC50 was found to be 19.4 nM.
